In ChEMBL document CHEMBL5728514, “[1,2,4]Triazolo[4,3-a]quinoxaline derivative, method for preparing same, and pharmaceutical composition for preventing or treating BET protein-related diseases, containing same as active ingredient” (2021):

Biological target: Bromodomain-containing protein 4 (Homo sapiens, UniProt O60885)
Test: A mixture comprising 100 nM GST-BRD4 (BD1+BD2) and 100 nM biotinylated acetyl-histone H4 (Lys5,8,12,16) peptide was prepared in assay buffer (50 mM HEPES pH 7.4; 25 mM NaCl; 0.05% Tween 20; 0.1% bovine serum albumin (BSA); 10 mM dithiothreitol (DTT)). After adding 6 μl of the mixture to the diluent, 6 μl of the pre-mixed AlphaLISA Glutathione Acceptor Beads and AlphaScreen Streptavidin Donor Beads (PerkinElmer, 10 μg/ml in assay buffer, respectively) was added thereto. The samples were incubated in the dark at room temperature for 30 minutes (shaking at 300 rpm). Then, the signals were measured with PerkinElmer Envision HTS Multilabel Reader using an alpha screen protocol of PerkinElmer. Each plate contained the negative control in which biotinylated acetyl-histone H4 peptide and GST-BRD4 (BD1+BD2) were replaced by assay buffer. In the case of using the software GraphPad Prism for calculation, the negative control point was input as a low standard value. The positive control (probe molecule l-BET762 containing protein/peptide mixture) proceeded to pipetting.

SMILES | IC50
Cc1nnc2c(NCCCCNC(=O)c3ccccc3)nc3ccccc3n12 | 58 nM
Cc1nnc2c(NCCCCNC(=O)c3ccccc3)nc3ccc(NC(=O)C(C)C)cc3n12 | 56 nM
Cc1nnc2c(NCCCCNC(=O)C(C)(C)C)nc3ccc(F)cc3n12 | 61 nM
COCCOc1ccc2c(c1)nc(NCCCCNC(C)=O)c1nnc(C)n12 | 91 nM
Cc1nnc2c(NCCCCNC(=O)OC(C)C)nc3c(C(F)(F)F)cc(F)cc3n12 | 91 nM
Cc1nnc2c(NCCCCNC(=O)C(C)C)nc3ccc(F)cc3n12 | 77 nM
Cc1ccc2nc(NCCCCNC(=O)C(C)(C)C)c3nnc(C)n3c2c1 | 56 nM
